Drawing on US11590155B2, “Substituted nucleosides, nucleotides and analogs thereof” (priority 2014, dated 2023), this text covers EC50 for three compounds.

pEC50: −log10 of the molar value.

This experiment deals with Ebola. Kind of experiment: microbe, parasite or virus in culture. Format: cell-based. As to conditions: Zaire ebolavirus, HeLa, read-out: EC50 against Ebola.

As usually defined, the pEC50 is the negative decadic logarithm of the EC50, by convention in mol/L. For `[N-]=[N+]=NC[C@]1(CO)O[C@@H](n2ccc(N)nc2=O)[C@H](F)[C@@H]1O` [Compound 106], the pEC50 was above 5.70.

For the compound `Nc1ccn([C@@H]2O[C@@](CO)(CCl)[C@@H](O)[C@H]2F)c(=O)n1` [compound 315], the pEC50 is above 4.60.

For `[N-]=[N+]=N[C@]1(CO)O[C@@H](n2ccc(N)nc2=O)[C@H](F)[C@@H]1O` [compound 332], the pEC50 was above 5.70.
